Holding throughout (experiment): KinomeScan profiling
Holding throughout (assay type): binding

One assay concerns the target T1, EPHB4 (Homo sapiens, UniProt P54760).
T1 sequence (P54760 16-987): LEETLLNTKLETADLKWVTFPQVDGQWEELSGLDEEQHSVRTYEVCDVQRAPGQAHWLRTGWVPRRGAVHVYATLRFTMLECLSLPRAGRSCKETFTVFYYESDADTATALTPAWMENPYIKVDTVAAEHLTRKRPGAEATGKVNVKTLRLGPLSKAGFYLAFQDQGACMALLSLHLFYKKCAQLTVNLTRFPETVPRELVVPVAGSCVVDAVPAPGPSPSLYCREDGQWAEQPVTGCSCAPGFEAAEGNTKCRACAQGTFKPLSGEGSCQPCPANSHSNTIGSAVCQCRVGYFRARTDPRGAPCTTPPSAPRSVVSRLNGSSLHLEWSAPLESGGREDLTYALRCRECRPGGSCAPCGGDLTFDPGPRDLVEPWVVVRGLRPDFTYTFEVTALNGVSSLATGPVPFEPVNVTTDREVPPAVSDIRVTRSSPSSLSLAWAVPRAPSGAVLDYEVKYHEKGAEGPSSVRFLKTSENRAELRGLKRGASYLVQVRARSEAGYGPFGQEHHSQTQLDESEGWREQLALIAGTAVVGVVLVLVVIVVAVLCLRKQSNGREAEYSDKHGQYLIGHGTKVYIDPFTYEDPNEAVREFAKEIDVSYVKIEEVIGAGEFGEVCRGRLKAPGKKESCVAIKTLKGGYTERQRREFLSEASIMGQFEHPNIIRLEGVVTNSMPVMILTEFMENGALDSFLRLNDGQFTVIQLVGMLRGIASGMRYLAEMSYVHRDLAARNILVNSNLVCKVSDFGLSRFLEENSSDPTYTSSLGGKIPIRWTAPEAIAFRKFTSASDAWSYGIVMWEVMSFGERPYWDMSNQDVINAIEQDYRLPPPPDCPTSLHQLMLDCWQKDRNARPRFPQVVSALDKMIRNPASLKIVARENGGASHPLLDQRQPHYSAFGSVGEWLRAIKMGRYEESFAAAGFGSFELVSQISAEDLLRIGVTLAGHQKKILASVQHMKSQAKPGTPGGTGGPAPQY
To be noted: EPHB4, 1 μM; read-out: % control. An outline of the steps:
(§1)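 Percent-of-control values derive from RLU, calculated as (test − positive)/(negative − positive) × 100, where DMSO defines 100% and a positive control compound defines 0%. Each compound was tested at 1 μM in the 468-kinase panel; sub-35% readings indicate activity.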

A further assay concerns the target GSK3A (Homo sapiens, UniProt P49840). To be noted: read-out: % control. An outline of the steps:
as §1

In another assay the target is T2, PRKX (Homo sapiens, UniProt P51817).
T2 sequence (P51817 1-358): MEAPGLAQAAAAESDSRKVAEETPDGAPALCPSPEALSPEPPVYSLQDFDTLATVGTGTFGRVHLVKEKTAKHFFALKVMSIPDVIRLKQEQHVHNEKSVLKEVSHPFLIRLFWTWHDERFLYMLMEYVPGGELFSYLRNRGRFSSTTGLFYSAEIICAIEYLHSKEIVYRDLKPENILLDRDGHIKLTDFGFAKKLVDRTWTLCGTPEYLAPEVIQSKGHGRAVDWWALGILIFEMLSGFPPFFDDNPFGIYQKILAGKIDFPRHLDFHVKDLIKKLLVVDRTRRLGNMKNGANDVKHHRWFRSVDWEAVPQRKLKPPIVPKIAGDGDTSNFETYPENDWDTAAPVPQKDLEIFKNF
As to conditions: read-out: % control. Summed up:
as §1

For the next assay, the target named is PFPK5(P. falciparum) (Plasmodium falciparum, UniProt P61075). As to conditions: read-out: % control. Summed up: as §1
In a further assay the target is LOK (Homo sapiens, UniProt O94804). As to conditions: read-out: % control. Summed up: as §1
The target in a further assay is T3, STK39 (Homo sapiens, UniProt Q9UEW8).
T3 construct: purchased KinomeScan® (panel service)
As to conditions: STK39, 1 μM; read-out: % control. Summed up:
as §1

In another assay the target is MELK (Homo sapiens, UniProt Q14680). To be noted: read-out: % control. Summed up:
as §1

For a further assay, the target named is CAMK2G (Homo sapiens, UniProt Q13555). To be noted: read-out: % control. Summed up:
as §1

The next assay has as its target T4, KIT(V559D, V654A) (Homo sapiens, UniProt P10721, V559D/V654A).
T4 construct: purchased KinomeScan®
To be noted: read-out: % control. Summed up:
as §1

The target of another assay is T5, GRK3 (Homo sapiens, UniProt P35626).
T5 sequence (P35626 1-688): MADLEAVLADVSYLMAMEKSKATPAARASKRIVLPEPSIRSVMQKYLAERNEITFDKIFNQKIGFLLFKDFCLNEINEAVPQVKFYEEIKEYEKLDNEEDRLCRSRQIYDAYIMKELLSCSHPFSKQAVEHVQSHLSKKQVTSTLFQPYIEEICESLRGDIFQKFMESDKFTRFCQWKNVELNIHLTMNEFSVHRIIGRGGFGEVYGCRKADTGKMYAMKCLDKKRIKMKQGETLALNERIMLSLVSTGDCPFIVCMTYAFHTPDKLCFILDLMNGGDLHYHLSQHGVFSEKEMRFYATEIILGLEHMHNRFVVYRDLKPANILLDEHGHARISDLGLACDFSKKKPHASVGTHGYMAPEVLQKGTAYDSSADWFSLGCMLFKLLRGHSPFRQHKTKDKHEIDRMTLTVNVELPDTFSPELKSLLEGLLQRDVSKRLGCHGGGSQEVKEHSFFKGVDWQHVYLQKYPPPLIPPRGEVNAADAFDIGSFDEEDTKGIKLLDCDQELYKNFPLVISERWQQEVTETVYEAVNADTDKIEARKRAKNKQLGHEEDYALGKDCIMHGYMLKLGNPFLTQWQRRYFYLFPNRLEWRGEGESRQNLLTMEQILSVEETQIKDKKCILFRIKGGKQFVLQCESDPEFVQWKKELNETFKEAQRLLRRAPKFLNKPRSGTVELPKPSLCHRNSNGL
To be noted: GRK3, 1 μM; read-out: % control. An outline of the steps: as §1

LOK, sequence (O94804 whole entry): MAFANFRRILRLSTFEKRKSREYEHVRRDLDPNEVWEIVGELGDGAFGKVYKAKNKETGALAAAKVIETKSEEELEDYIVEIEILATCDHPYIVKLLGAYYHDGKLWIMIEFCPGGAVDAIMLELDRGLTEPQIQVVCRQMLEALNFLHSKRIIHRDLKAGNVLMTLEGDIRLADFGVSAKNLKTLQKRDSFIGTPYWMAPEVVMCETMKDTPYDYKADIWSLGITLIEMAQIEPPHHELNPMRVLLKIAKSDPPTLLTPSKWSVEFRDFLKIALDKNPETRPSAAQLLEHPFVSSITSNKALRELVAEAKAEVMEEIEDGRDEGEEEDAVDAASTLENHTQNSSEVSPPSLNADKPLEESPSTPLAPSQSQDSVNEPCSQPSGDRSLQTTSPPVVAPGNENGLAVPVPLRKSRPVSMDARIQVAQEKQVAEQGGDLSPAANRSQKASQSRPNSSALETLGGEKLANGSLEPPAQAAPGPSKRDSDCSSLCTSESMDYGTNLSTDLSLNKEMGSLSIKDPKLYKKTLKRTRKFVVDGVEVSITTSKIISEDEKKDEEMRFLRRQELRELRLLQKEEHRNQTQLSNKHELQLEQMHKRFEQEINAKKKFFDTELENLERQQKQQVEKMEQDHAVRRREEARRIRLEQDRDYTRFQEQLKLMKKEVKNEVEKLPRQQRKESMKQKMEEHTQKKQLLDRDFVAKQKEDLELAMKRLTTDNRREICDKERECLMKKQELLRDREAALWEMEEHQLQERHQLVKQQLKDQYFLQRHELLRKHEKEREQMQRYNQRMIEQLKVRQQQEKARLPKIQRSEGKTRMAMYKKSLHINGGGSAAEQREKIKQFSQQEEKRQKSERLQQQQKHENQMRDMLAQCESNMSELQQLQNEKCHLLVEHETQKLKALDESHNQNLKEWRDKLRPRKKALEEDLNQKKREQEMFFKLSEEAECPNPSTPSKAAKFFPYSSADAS
T4 sequence (P10721 26-976 V559D/V654A): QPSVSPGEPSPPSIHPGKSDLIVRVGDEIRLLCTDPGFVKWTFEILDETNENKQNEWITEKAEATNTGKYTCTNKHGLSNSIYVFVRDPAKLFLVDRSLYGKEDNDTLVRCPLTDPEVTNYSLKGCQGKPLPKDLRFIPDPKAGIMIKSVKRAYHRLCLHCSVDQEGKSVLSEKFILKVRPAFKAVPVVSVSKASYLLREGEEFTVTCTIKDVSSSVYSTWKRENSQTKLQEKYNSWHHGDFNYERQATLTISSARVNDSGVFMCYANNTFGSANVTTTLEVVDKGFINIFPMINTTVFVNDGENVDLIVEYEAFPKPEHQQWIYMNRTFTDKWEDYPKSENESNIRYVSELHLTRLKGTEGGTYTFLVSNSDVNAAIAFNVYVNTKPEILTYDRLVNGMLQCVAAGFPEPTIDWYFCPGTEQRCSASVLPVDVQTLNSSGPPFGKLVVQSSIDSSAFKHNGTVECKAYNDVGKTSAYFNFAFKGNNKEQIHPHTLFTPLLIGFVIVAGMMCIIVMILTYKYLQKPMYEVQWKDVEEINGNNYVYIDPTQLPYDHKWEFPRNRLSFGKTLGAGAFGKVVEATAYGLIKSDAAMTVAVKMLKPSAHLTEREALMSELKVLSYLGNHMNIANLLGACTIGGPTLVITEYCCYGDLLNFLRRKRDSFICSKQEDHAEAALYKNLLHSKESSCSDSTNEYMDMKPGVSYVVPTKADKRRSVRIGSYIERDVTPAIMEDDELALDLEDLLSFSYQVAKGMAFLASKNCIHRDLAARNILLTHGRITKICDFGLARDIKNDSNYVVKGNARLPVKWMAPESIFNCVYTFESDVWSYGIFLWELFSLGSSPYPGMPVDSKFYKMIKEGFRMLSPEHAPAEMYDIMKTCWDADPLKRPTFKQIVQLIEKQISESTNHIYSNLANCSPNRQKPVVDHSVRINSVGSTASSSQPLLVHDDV
CAMK2G, sequence (Q13555 whole entry): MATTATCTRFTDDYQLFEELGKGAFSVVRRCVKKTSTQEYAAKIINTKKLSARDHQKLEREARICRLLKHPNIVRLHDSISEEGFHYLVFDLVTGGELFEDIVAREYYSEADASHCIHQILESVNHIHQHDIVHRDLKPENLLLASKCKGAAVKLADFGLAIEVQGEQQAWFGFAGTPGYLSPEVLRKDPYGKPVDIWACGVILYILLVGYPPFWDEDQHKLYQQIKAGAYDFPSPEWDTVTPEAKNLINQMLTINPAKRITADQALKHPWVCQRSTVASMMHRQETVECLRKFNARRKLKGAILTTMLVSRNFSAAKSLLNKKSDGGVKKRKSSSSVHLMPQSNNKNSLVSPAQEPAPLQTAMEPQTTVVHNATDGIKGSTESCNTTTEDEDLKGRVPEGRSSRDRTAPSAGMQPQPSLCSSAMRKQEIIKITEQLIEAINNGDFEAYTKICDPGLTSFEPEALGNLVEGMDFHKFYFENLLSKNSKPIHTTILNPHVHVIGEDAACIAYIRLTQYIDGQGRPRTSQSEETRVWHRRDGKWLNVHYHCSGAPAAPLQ
PFPK5(P. falciparum), sequence (P61075 whole entry): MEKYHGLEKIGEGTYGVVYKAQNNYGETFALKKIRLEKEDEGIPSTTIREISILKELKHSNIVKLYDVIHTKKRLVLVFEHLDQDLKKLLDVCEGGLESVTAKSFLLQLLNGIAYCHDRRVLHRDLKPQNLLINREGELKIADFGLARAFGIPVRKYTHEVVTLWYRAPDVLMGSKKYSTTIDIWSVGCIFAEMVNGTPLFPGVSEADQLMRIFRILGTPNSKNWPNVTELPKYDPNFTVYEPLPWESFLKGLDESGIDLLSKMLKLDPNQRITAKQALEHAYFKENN
GSK3A, sequence (P49840 whole entry): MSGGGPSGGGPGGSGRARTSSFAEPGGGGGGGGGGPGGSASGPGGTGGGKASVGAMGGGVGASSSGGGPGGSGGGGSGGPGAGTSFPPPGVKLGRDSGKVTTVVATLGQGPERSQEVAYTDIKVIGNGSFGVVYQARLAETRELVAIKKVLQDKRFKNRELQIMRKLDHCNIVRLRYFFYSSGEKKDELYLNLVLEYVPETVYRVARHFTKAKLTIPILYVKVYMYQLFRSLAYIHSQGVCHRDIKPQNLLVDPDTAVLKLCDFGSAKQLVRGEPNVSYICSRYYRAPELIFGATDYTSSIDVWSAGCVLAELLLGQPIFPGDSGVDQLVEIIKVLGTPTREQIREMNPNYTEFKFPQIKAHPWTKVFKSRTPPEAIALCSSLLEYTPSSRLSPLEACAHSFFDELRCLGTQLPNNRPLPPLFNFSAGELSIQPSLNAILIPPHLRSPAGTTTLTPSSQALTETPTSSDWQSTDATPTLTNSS
MELK, sequence (Q14680 whole entry): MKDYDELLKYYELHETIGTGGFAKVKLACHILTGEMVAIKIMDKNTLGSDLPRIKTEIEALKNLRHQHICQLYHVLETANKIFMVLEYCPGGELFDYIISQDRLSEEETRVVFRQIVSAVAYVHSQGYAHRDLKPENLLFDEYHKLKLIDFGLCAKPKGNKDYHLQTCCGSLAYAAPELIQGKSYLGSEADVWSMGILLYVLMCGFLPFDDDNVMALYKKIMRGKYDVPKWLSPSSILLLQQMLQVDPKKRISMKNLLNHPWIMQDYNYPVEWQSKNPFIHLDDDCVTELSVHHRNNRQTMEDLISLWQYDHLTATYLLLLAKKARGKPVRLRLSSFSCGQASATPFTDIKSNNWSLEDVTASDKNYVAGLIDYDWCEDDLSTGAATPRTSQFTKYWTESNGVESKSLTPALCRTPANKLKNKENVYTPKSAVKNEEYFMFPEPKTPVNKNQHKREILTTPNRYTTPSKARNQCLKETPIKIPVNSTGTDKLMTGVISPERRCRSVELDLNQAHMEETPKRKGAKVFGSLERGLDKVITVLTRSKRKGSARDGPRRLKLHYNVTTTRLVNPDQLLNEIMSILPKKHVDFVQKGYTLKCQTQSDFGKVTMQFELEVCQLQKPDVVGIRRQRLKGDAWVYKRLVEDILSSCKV

As to `CNc1c(-c2ccc(C(=O)N3CCC(N4CCOCC4)CC3)cc2)cnc2[nH]cc(Cl)c12` [Compound 96, (4-(3-chloro-4-(methylamino)-1H-pyrrolo[2,3-b]pyridin-5-yl)phenyl)(4-morpholinopiperidin-1-yl)methanone], the remaining binding at 1 µM amounted to 100% at EPHB4; 65% at GSK3A; 100% on PRKX; 100% on PFPK5(P. falciparum); 88% on LOK; 9.7% at STK39. Also, the remaining binding at 1 µM came out at 16% at MELK; 95% on CAMK2G; 94% at KIT(V559D, V654A); 92% at GRK3.
For `O=C(c1ccc(-c2cnc3[nH]cc(Cl)c3c2NC2CCCC2)cc1)N1CCC(N2CCOCC2)CC1` [Compound 101, (4-(3-chloro-4-(cyclopentylamino)-1H-pyrrolo[2,3-b]pyridin-5-yl)phenyl)(4-morpholinopiperidin-1-yl)methanone], the remaining binding at 1 µM came to 62% on EPHB4; 42% at GSK3A; 82% at PRKX; 100% on PFPK5(P. falciparum); 81% on LOK; 80% on STK39. The remaining binding at 1 µM stood at 30% at MELK; 96% on CAMK2G; 100% on KIT(V559D, V654A); 94% at GRK3.
Turning to `CNc1c(-c2cnn([C@H]3CCN(C(C)=O)C[C@@H]3F)c2)cnc2[nH]cc(Cl)c12` [Compound 77, 1-((3S,4S)-4-(4-(3-chloro-4-(methylamino)-1H-pyrrolo[2,3-b]pyridin-5-yl)-1H-pyrazol-1-yl)-3-fluoropiperidin-1-yl)ethan-1-one], the remaining binding at 1 µM on EPHB4 was 100%; at GSK3A it was 98%; at PRKX it was 100%; on PFPK5(P. falciparum), 100%; at LOK, 99%; at STK39, 16%. The remaining binding at 1 µM on MELK came out at 20%; on CAMK2G it was 90%; at KIT(V559D, V654A), 53%; on GRK3, 93%.
